# pEC50, pKi: −log10 of the molar value.
# Experiments:
# [1] = target: T1, delta opioid receptor (Rattus norvegicus, UniProt P33533); assay: Rat Brain Delta Opioid Receptor Binding Assay ([3H]DPDPE); details: rat forebrain membranes, margin of error 10-20%, read-out: r Ki δ
# T1 construct: from tissue; host or cells: forebrain of male Wistar rats
# How it was run: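 Rat (male Wistar) forebrain membranes in 50 mM Tris-HCl pH 7.4 with 5 mM MgCl2, incubated with ~4 nM [3H]DPDPE for 2.5 h at 25 °C. Bound ligand collected by filtration and scintillation counting. Single-concentration data given as % inhibition of specific binding; concentration series fitted to Ki.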
# [2] = target: T2, mu opioid receptor (Rattus norvegicus, UniProt P33535); assay: Rat Brain Mu Opioid Receptor Binding Assay (and Version 2a, [3H]DAMGO); details: rat forebrain membranes, margin of error 10-20%, read-out: r Ki μ
# T2 construct: from tissue; host or cells: forebrain of male Wistar rats
# T2 sequence (P33535 whole entry): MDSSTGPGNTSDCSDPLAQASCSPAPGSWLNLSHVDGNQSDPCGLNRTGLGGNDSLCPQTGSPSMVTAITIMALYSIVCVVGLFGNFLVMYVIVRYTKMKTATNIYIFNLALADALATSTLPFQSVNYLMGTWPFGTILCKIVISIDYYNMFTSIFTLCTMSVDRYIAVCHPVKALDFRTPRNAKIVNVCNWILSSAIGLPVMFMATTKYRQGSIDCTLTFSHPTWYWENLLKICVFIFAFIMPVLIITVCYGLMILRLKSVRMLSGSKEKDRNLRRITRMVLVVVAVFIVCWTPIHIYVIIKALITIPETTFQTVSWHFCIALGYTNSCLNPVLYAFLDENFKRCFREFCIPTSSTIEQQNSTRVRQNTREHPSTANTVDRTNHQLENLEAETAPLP
# How it was run: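 Displacement of the mu-selective radioligand [3H]DAMGO (0.8 nM) measured by filtration and scintillation counting after 2.5 h at 25° C. Membranes came from male Wistar rat forebrain in Tris-HCl (50 mM, pH 7.4) plus 5 mM MgCl2; Ki derived from concentration–response, % inhibition for single doses.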
# [3] = target: T3, human mu opioid receptor (Homo sapiens, UniProt P35372); assay: Human Mu Opioid Receptor Binding Assay (CHO membranes, 3H-Damgo); details: read-out: hKi μ
# T3 construct: purchased Perkin Elmer RBHOMM400UA; host or cells: Chinese Hamster Ovary cells (recombinant expression)
# T3 sequence (P35372 whole entry): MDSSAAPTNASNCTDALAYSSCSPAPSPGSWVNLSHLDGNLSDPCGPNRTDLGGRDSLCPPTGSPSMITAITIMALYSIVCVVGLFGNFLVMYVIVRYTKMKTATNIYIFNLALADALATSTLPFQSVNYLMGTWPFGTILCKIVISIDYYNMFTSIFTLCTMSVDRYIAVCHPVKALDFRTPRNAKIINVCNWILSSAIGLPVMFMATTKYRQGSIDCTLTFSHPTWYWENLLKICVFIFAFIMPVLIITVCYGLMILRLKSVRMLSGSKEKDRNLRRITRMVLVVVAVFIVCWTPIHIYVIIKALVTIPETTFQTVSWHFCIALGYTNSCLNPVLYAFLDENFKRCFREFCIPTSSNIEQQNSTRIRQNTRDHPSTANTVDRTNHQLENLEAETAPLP
# How it was run: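 Radioligand displacement of ³H-Damgo (diluted to 3.6 nM pre-mix) from recombinant human mu receptor in CHO membranes, 2 h, room temperature, 50 mM Tris pH 7.5 with 5 mM MgCl2. Bound label read by filtration and scintillation counting; 1 μM unlabelled Damgo defines nonspecific binding.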
# [4] = target: T4, delta opioid receptor (NG108-15 cell membranes) (Mus musculus, UniProt P32300); assay: Delta Opioid Receptor Functional Assay: [35S]GTPγS Binding in NG108-15 Cell Membranes, Version 2; type: biochemical; details: NG108-15 cell membranes, version 2; for pEC50: [35S]GTPγS, read-out: DOR GTP-binding Assay_v2_ EC50; for DOR GTP-binding Assay v2 (% I): % inhibition of agonist-stimulated GTPγS binding
# T4 construct: NG108-15 cell membranes were purchased from Applied Cell Sciences (Rockville, Md.); host or cells: NG108-15 cells (membranes purchased)
# T4 sequence (P32300 whole entry): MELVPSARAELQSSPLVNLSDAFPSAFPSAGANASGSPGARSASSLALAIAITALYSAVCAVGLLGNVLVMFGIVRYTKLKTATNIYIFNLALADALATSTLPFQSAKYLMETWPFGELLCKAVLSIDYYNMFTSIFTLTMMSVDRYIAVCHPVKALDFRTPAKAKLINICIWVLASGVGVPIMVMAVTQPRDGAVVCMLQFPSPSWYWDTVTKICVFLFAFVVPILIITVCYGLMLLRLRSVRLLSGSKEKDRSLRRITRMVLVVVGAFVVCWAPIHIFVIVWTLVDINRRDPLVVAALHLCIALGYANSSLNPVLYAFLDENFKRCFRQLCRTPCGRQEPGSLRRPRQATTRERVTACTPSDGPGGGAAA
# Experimental: NG108-15 cell membranes were purchased from Applied Cell Sciences (Rockville, Md.). 8 mg/ml of membrane protein suspended in 10 mM TRIS-HC pH 7.2, 2 mM EDTA, 10% sucrose.
# (§1) Membranes were maintained at 4-8° C. A portion (1 ml) of membranes was added into 10 ml cold binding assay buffer. The assay buffer contained 50 mM Tris, pH 7.6, 5 mM MgCl2, 100 mM NaCl, 1 mM DTT and 1 mM EGTA. The membrane suspension was homogenized with a Polytron for 2 times and centrifuged at 3000 rpm for 10 min. The supernent was then centrifuged at 18,000 rpm for 20 min. The pellet was saved in a tube and 10 ml assay buffer was added into the tube. The pellet and buffer were mixed with a Polytron.
# (§2) The pellet membranes (75 μg/ml) were preincubated with SPA (10 mg/ml) at 25° C. for 45 min in the assay buffer. The SPA (5 mg/ml) coupled with membranes (37.5 μg/ml) was then incubated with 0.1 nM [^35S] GTPγS in the same Tris buffer containing 100 μM GDP in total volume of 200 μl. Increasing concentrations of receptor agonists were used to stimulate [^35S] GTPγS binding. The basal binding was tested in the absent agonists and no specific binding was tested in the present 10 μM unlabeled GTPγS. The data were analyzed on a Top counter.
# [formula] % Inhibition=(% stimulation by 1 μM SNC80−% stimulation by 1 μM SNC80 in presence of test compound)×100/(% Stimulation by 1 μM SNC80−100) % of Basal=(stimulate−non specific)*100/(basal−non specific). EC50 values were calculated using GraphPad Prism.
# [5] = target: T5, mu opioid receptor (CHO-hMOR cell membranes) (Homo sapiens, UniProt P35372); assay: Mu Opioid Receptor Functional Assay: [35S]GTPγS Binding in CHO-hMOR Cell Membranes, Versions 1 and 2; type: biochemical; details: for MOR GTP binding assay_v2 (% I): version 2, % inhibition of agonist-stimulated GTPγS binding; for pEC50: version 2, read-out: MOR GTP binding assay v2 EC50
# T5 construct: purchased Receptor Biology, Inc. (Baltimore, Md.); host or cells: CHO cells (recombinant expression)
# T5 sequence (P35372 whole entry): as the sequence (P35372 whole entry) above
# How it was run: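 Agonist-stimulated [35S]GTPγS (0.5 nM) binding measured by SPA in human MOR CHO membranes, buffer pH 7.6 with 100 mM NaCl, 5 mM MgCl2. Antagonist mode: % inhibition of stimulation by 1 μM SNC80; agonist mode: EC50 fitted. Basal binding without agonist, non-specific with 10 μM cold GTPγS.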
# [6] = target: T6, delta opioid receptor (CHO-hδ cell membranes) (Homo sapiens, UniProt P41143); assay: Delta Opioid Receptor Functional Assay: [35S]GTPγS Binding in CHO-hδ Cell Membranes, Version 1; type: biochemical; details: read-out: DOR GTP-binding Assay_v1 EC50
# T6 construct: purchased Receptor Biology, Inc. (Baltimore, Md.); host or cells: CHO cells (recombinant expression)
# T6 sequence (P41143 whole entry): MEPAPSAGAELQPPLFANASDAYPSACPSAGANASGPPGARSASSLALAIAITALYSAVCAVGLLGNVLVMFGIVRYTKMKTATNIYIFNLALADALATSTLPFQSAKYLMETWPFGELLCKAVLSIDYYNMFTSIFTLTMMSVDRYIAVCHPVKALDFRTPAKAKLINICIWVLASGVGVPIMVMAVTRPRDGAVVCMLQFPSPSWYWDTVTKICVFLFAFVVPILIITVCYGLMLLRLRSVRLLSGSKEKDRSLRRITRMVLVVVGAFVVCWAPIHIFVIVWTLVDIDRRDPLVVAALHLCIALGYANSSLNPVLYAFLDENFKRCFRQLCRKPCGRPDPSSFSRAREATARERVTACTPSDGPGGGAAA
# Experimental: CHO-hδ cell membranes were purchased from Receptor Biology, Inc. (Baltimore, Md.). 10 mg/ml of membrane protein suspended in 10 mM TRIS-HC pH 7.2, 2 mM EDTA, 10% sucrose.
# as §1, with “into 15 mL” for “into 10 ml”, “mM HEPES,” for “mM Tris,”, “mM EDTA.” for “mM EGTA.”
# as §2, with “(20” for “(75”, “(10” for “(37.5”, “0.5” for “0.1”, “[^35S]GTPγS” for “[^35S] GTPγS”, “HEPES” for “Tris”, “50” for “100”
# Data The % of Basal=(stimulate−non specific)*100/(basal−non specific). EC50 values were calculated using a Prism program.
# T1 sequence (P33533 whole entry): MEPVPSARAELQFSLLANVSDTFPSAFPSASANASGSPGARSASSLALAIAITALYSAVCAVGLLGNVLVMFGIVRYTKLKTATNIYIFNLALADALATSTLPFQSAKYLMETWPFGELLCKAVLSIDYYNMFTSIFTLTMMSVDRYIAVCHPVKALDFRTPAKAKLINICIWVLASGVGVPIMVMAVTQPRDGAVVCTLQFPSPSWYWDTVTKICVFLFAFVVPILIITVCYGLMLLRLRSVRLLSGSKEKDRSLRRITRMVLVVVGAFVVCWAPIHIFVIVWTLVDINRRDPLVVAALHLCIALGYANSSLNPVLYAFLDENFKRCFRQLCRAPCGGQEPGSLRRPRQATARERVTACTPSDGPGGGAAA
Compound,pKi [1],pKi [2],pKi [3],pEC50 [4],DOR GTP-binding Assay v2 (% I) [4] [%],MOR GTP binding assay_v2 (% I) [5] [%],pEC50 [5],pEC50 [6],"MOR GTP binding assay_v1 (% I) ([5]; version 1, % inhibition of agonist-stimulated GTPγS binding) [%]","MOR GTP assay_v1 % of Basal ([5]; version 1, basal binding = 100%) [%]"
C[C@@H](c1nc(-c2ccccc2)c[nH]1)N(Cc1cccc(-c2nnn[nH]2)c1)C(=O)[C@@H](N)Cc1ccc(C(N)=O)cc1 [Cpd 267],9.34,8.82,8.16,8.22,31.76,–,–,–,–,–
COc1ccc(CN(C(=O)[C@@H](N)Cc2c(C)cc(C(N)=O)cc2C)[C@@H](C)c2nc(-c3ccccc3Br)c[nH]2)cc1C(=O)O [Cpd 290],9.16,9.37,–,< 5.00,52.41,–,–,–,–,–
COc1ccc(CN(C(=O)[C@@H](N)Cc2c(C)cc(C(N)=O)cc2C)[C@@H](C)c2nc(-c3ccc(Cl)cc3)c(C)[nH]2)cc1C(=O)O [Cpd 239],10.00,9.36,–,< 5.00,–,–,–,–,–,–
COc1ccc(CN(C(=O)[C@@H](N)Cc2c(C)cc(C(N)=O)cc2C)[C@@H](C)c2nc(-c3cccc(Br)c3)c[nH]2)cc1C(=O)O [Cpd 288],9.77,9.37,–,< 5.00,74.54,–,–,–,–,–
CCOc1cccc(CN(C(=O)[C@@H](N)Cc2c(C)cc(O)cc2C)[C@@H](C)c2nc(-c3ccccc3)c[nH]2)c1 [Cpd 251],9.59,10.10,–,7.74,53.94,–,–,–,–,–
COc1ccc(CN(C(=O)[C@@H](N)Cc2c(C)cc(C(N)=O)cc2C)[C@@H](C)c2nc(-c3ccccc3)c[nH]2)cc1C(=O)NCCO [Cpd 299],8.94,9.36,–,8.64,–,12.11,9.00,–,–,–
COc1ccc(CN(C(=O)[C@@H](N)Cc2c(C)cc(C(N)=O)cc2C)[C@@H](C)c2nc(-c3ccccc3)c[nH]2)cc1C(=O)N1CCOCC1 [Cpd 296],8.66,9.31,–,8.10,69.41,9.35,8.66,–,–,–
Cc1cc(O)cc(C)c1C[C@H](N)C(=O)N(Cc1ccc(C(F)(F)F)cc1)[C@@H](C)c1nc(-c2ccccc2)c[nH]1 [Cpd 249],9.74,9.92,–,8.10,20.14,–,–,–,–,–
COc1ccc(CN(C(=O)[C@@H](N)Cc2c(C)cc(C(N)=O)cc2C)[C@@H](C)c2nc(-c3ccccc3)c[nH]2)cc1C(N)=O [Cpd 295],8.40,9.74,–,8.66,71.66,8.21,8.85,–,–,–
Cc1cc(O)cc(C)c1C[C@H](N)C(=O)N(C)[C@@H](CC(C)C)c1nc(-c2ccccc2)c[nH]1 [Cpd 174],–,–,–,–,–,–,–,7.70,42.00,864.00
Cc1cc(O)cc(C)c1C[C@H](N)C(=O)N(Cc1ccc(OC(C)C)cc1)[C@@H](C)c1nc(-c2ccccc2)c[nH]1 [Cpd 250],9.68,10.22,–,8.00,34.93,–,–,–,–,–
COc1cc(CN(C(=O)[C@@H](N)Cc2c(C)cc(C(N)=O)cc2C)[C@@H](C)c2nc(-c3ccccc3)c[nH]2)ccc1C(=O)O [Cpd 14],9.44,–,8.33,9.22,59.70,–,–,–,–,–
COc1cc(CN(C(=O)[C@@H](N)Cc2c(C)cc(C(N)=O)cc2C)[C@@H](C)c2nc(-c3ccccc3)c[nH]2)c(C(=O)O)cc1OC [Cpd 230],8.00,8.30,–,7.31,–,–,–,–,–,–
Cc1cc(C(N)=O)cc(C)c1C[C@H](N)C(=O)N(Cc1ccccc1C(=O)O)[C@@H](C)c1nc(-c2ccccc2)c[nH]1 [Cpd 226],7.32,–,8.10,< 5.00,19.71,–,–,–,–,–
COC(=O)c1cccc(CN(C(=O)[C@@H](N)Cc2c(C)cc(C(N)=O)cc2C)[C@@H](C)c2nc(-c3ccccc3)c[nH]2)c1 [Cpd 9],9.96,9.80,7.96,8.47,67.13,–,–,–,–,–
Cc1cc(O)cc(C)c1C[C@H](N)C(=O)N(Cc1ccc(OC(F)(F)F)cc1)[C@@H](C)c1nc(-c2ccccc2)c[nH]1 [Cpd 248],9.36,9.96,–,7.82,31.72,–,–,–,–,–
COC(=O)c1ccc(CN(C(=O)[C@@H](N)Cc2c(C)cc(O)cc2C)[C@@H](C)c2nc(-c3ccccc3)c[nH]2)o1 [Cpd 286],9.96,10.30,–,8.59,34.65,–,–,–,–,–
Cc1cc(C(N)=O)cc(C)c1C[C@H](N)C(=O)N(Cc1ccccc1C(N)=O)[C@@H](C)c1nc(-c2ccccc2)c[nH]1 [Cpd 1],7.88,8.96,8.44,7.06,22.10,–,–,–,–,–
COc1ccc(CN(C(=O)[C@@H](N)Cc2c(C)cc(O)cc2C)[C@@H](C)c2nc(-c3ccccc3)c[nH]2)c2ccccc12 [Cpd 247],9.40,9.21,–,7.36,41.89,–,–,–,–,–
COc1ccc(CN(C(=O)[C@@H](N)Cc2c(C)cc(C(N)=O)cc2C)[C@@H](C)c2nc(-c3ccccc3C(=O)O)c[nH]2)cc1OC [Cpd 29],7.55,7.60,7.42,< 5.00,79.05,–,–,–,–,–
COc1ccc(CN(C(=O)[C@@H](N)Cc2c(C)cc(C(N)=O)cc2C)[C@@H](C)c2nc(-c3ccccc3)c[nH]2)cc1C(=O)NC1CC1 [Cpd 300],9.54,10.05,–,7.49,–,15.40,8.59,–,–,–
COc1ccc(CN(C(=O)[C@@H](N)Cc2c(C)cc(C(N)=O)cc2C)[C@@H](C)c2nc(-c3ccc(Br)cc3)c[nH]2)cc1C(=O)O [Cpd 291],9.92,9.33,–,< 5.00,96.52,–,–,–,–,–
